This note sets out measurements from patent US5081121A, “4(1H)-quinolone derivatives” (priority 1988, dated 1992).

The test system of one assay is right atrial muscle. As to the kind of experiment: Test Method 1: enhancing rate of the pulsation of the right atrial muscle extirpated from a guinea pig. It counts as cell-based. To be noted: minus values: pulsation is decreased. As for the experimental part:
(§1) The drug according to the present invention was evaluated with reference to the physiological activities by means of a method using an atrial muscle extirpated from a guinea pig.
(§2) Male guinea pigs having a body weight of 300-500 g were made swooned by striking his head and were bleeded to death. The heart was extirpated and the right and left atrial muscles were cut off. The tops of each atrial muscle were fixed with cerrefines. The muscle was suspended into an organ-bath in which a Krebs-Henseleit solution (at 32° C.) was filled, and a 95% O2 -5% CO2 gas was flown through the bath. The left atrial muscle was stimulated electrically at a frequency of 1 Hz to stabilize the contracting force of the left atrial muscle. Then, the compounds according to the present invention represented by the general formulae were added to the organ-bath. As for the right atrial muscle, after the pulsation was stabilized, the compounds according to the present invention were added in the organ-bath in the same manner as described above.
(§3) The compounds according to the present invention represented by the aforementioned general formulae enhanced the left atrial muscle contracting force dependent on their concentrations. The drug concentrations for enhancing the left atrial muscle contracting force to the levels of 20%, 50% and 100%, respectively are listed in Table 2. EC20, EC50 and EC100 indicate the molar concentration for enhancing the left atrial muscle contracting force to the levels of 20%, 50% and 100%, respectively. The enhancing rates of the pulsation of the right atrial muscle are also listed within parentheses. The minus values in parentheses indicate that the pulsation of the right atrial muscle is decreased.
(§4) As a control drug, theophylline ([…].

Another assay relates to left atrial muscle. As to the kind of experiment: Test Method 1: enhancement of contracting force of left atrial muscle extirpated from a guinea pig (electrically stimulated at 1 Hz). Type of assay: cell-based. To be noted: Cavia porcellus, Krebs-Henseleit solution 32° C.; for EC20: read-out: EC20 (molar concentration for enhancing the left atrial muscle contracting force to the level of 20%); for EC50: read-out: EC50 (molar concentration for enhancing the left atrial muscle contracting force to the level of 50%); for EC100: read-out: EC100 (molar concentration for enhancing the left atrial muscle contracting force to the level of 100%). The method, then: as §1, §2, §3, §4

Some results are limits rather than exact numbers.

For the compound `COc1ccc2[nH]ccc(=O)c2c1O` [Compound 1, 5-hydroxy-6-methoxy-4(1H)-quinolone], in the assay with right atrial muscle, the “enhancing rate of the pulsation of the right atrial muscle (in parentheses under EC20)” value (from here on “enhancing rate … (in parentheses under EC20)”) worked out at 1.2%, the “enhancing rate of the pulsation of the right atrial muscle (in parentheses under EC100)” value (“enhancing rate … (in parentheses under EC100)” for short) was determined as 6.8% and the “enhancing rate of the pulsation of the right atrial muscle (in parentheses under EC50)” value (“enhancing rate … (in parentheses under EC50)” below) worked out at 3.6%. Further, in the assay with left atrial muscle, the EC20 was 199 µM, the EC50 was found to be 398 µM and the EC100 amounted to 708 µM.

With `COc1c(O)ccc2[nH]ccc(=O)c12` [Compound 2, 6-hydroxy-5-methoxy-4(1H)-quinolone], in the assay on right atrial muscle, the “enhancing rate … (in parentheses under EC20)” value amounted to 0.6% and the “enhancing rate … (in parentheses under EC50)” value was 2.2%. Also, in the assay on left atrial muscle, the EC20 is 490 µM and the EC50 was 871 µM.

As for `COc1ccc2c(=O)cc[nH]c2c1O` [Compound 3, 8-hydroxy-7-methoxy-4(1H)-quinolone], in the assay on right atrial muscle, the “enhancing rate … (in parentheses under EC20)” value is 0.8% and the “enhancing rate … (in parentheses under EC50)” value came out at 2.0%. Further, in the assay on left atrial muscle, the EC20 stood at 708 µM and the EC50 was 977 µM.

With `COc1ccc2[nH]ccc(=O)c2c1OCc1ccccc1` [Compound 4, 5-benzyloxy-6-methoxy-4(1H)-quinolone], the “enhancing rate … (in parentheses under EC20)” value in the assay on right atrial muscle is listed as 0.7%. The EC20 in the assay with left atrial muscle stood at 1000 µM.

For `CCOC(=O)c1c[nH]c2c(OCOC)ccc(OC)c2c1=O` [Compound 5, 3-ethoxycarbonyl-5-methoxy-8-methoxymethoxy-4(1H)-quinolone], the “enhancing rate … (in parentheses under EC20)” value in the assay on right atrial muscle worked out at 0.2%. The EC20 in the assay with left atrial muscle worked out at 741 µM.

Regarding `CCN(CC)c1cc(C)c2[nH]ccc(=O)c2c1` [Compound 9, 6-diethylamino-8-methyl-4(1H)-quinolone], in the assay on right atrial muscle, the “enhancing rate … (in parentheses under EC20)” value amounted to 8.2%, the “enhancing rate … (in parentheses under EC100)” value is listed as 18.0% and the “enhancing rate … (in parentheses under EC50)” value worked out at 15.3%. Further, in the assay on left atrial muscle, the EC20 is 40.7 µM, the EC50 is 87.1 µM and the EC100 came out at 299 µM.

In the case of `COc1cc2c(=O)ccn(C)c2cc1OC` [Compound 13, 6,7-dimethoxy-1-methyl-4(1H)-quinolone], in the assay on right atrial muscle, the “enhancing rate … (in parentheses under EC20)” value came out at 0.1%, the “enhancing rate … (in parentheses under EC100)” value is given as 4.0% and the “enhancing rate … (in parentheses under EC50)” value is listed as 1.2%. Besides, in the assay with left atrial muscle, the EC20 worked out at 12.5 µM, the EC50 came to 88.1 µM and the EC100 amounted to 447 µM.

Regarding `COc1ccc(Cn2ccc(=O)c3cc(OC)c(OC)cc32)cc1` [Compound 17, 6,7-dimethoxy-1-(4-methoxybenzyl)-4(1H)-quinolone], in the assay on right atrial muscle, the “enhancing rate … (in parentheses under EC20)” value is -2.1% and the “enhancing rate … (in parentheses under EC50)” value was -4.0%. In addition, in the assay on left atrial muscle, the EC20 is 4.47 µM and the EC50 amounted to 30 µM.

Take `O=C(c1ccccc1)c1cc(Cl)cc2c(=O)cc[nH]c12` [Compound 18, 8-benzoyl-6-chloro-4(1H)-quinolone]: in the assay with right atrial muscle, the “enhancing rate … (in parentheses under EC20)” value was 0.2%, the “enhancing rate … (in parentheses under EC100)” value came out at 12.2% and the “enhancing rate … (in parentheses under EC50)” value is given as 9.2%. In addition, in the assay on left atrial muscle, the EC20 was 10 µM, the EC50 came to 39.3 µM and the EC100 came to 115 µM.

As to `COc1cc(OCc2ccccc2)cc2c(=O)cc[nH]c12` [Compound 26, 6-benzyloxy-8-methoxy-4(1H)-quinolone], in the assay with right atrial muscle, the “enhancing rate … (in parentheses under EC20)” value is recorded as 0.1%, the “enhancing rate … (in parentheses under EC100)” value was found to be 8.7% and the “enhancing rate … (in parentheses under EC50)” value is 5.5%. In the assay on left atrial muscle, the EC20 stood at 6.38 µM, the EC50 turned out to be 63 µM and the EC100 stood at 305 µM.

For `COC(=O)c1cn(C)c2cc(OC)c(OC)cc2c1=O` [Compound 32, 6,7-dimethoxy-3-methoxycarbonyl-1-methyl-4(1H)-quinolone], in the assay on right atrial muscle, the “enhancing rate … (in parentheses under EC20)” value is 0.1%, the “enhancing rate … (in parentheses under EC100)” value amounted to 0.4% and the “enhancing rate … (in parentheses under EC50)” value is on record as 0.3%. For the same compound, in the assay with left atrial muscle, the EC20 was 40.7 µM, the EC50 turned out to be 85.1 µM and the EC100 came to 282 µM.

`CCOC(=O)c1cn(CC)c2ccc(C)cc2c1=O` [Compound 33, 3-ethoxycarbonyl-1-ethyl-6-methyl-4(1H)-quinolone]: in the assay on right atrial muscle, the “enhancing rate … (in parentheses under EC20)” value was found to be 1.5%, the “enhancing rate … (in parentheses under EC100)” value is reported as -7.1% and the “enhancing rate … (in parentheses under EC50)” value came to 1.7%. Moreover, in the assay with left atrial muscle, the EC20 came out at 30 µM, the EC50 was 76.7 µM and the EC100 is 513 µM.

Consider `CCOC(=O)c1cn(CC)c2cc(OCC)c(OC)cc2c1=O` [Compound 34, 7-ethoxy-3-ethoxycarbonyl-1-ethyl-6-methoxy-4(1H)-quinolone], for which, in the assay with right atrial muscle, the “enhancing rate … (in parentheses under EC20)” value is given as -3.2% and the “enhancing rate … (in parentheses under EC50)” value is reported as -8.5%. In the assay on left atrial muscle, the EC20 amounted to 6.46 µM and the EC50 is 100 µM.

With `CCOC(=O)c1c[nH]c2c(OC)cccc2c1=O` [Compound 35, 3-ethoxycarbonyl-8-methoxy-4(1H)-quinolone], in the assay with right atrial muscle, the “enhancing rate … (in parentheses under EC20)” value is reported as -1.2%, the “enhancing rate … (in parentheses under EC100)” value is given as -3.7% and the “enhancing rate … (in parentheses under EC50)” value is given as -2.0%. In the assay on left atrial muscle, the EC20 came out at 26 µM, the EC50 is 80 µM and the EC100 was 260 µM.

On to `CCOC(=O)c1c[nH]c2c(OC)ccc(C)c2c1=O` [Compound 36, 3-ethoxycarbonyl-8-methoxy-5-methyl-4(1H)-quinolone], for which, in the assay with right atrial muscle, the “enhancing rate … (in parentheses under EC20)” value was 0.0%, the “enhancing rate … (in parentheses under EC100)” value is 8.9% and the “enhancing rate … (in parentheses under EC50)” value is given as 3.6%. In the assay on left atrial muscle, the EC20 stood at 3.54 µM, the EC50 was determined as 25.7 µM and the EC100 worked out at 77.6 µM.

`CCn1cc(C(=O)O)c(=O)c2cc(C)ccc21` [Compound 90, 3-carboxyl-1-ethyl-6-methyl-4(1H)-quinolone]: in the assay on left atrial muscle, the EC20 was found to be 181 µM, the EC50 is 345 µM and the EC100 amounted to 394 µM.

Turning to `CCCn1cc(C(=O)O)c(=O)c2cc(OC)c(OCC)cc21` [Compound 93, 3-carboxyl-7-ethoxy-6-methoxy-1-n-propyl-4(1H)-quinolone], in the assay on left atrial muscle, the EC20 is 376 µM and the EC50 was found to be 465 µM.

Turning to `COc1cc2[nH]c(-c3ccco3)cc(=O)c2cc1OC` [Compound 94, 6,7-dimethoxy-2-(2-furyl)-4(1H)-quinolone], in the assay on left atrial muscle, the EC20 is less than 100 µM, the EC50 is less than 100 µM and the EC100 is 417 µM.

`O=c1cc(C2CC2)[nH]c2ccccc12` [Compound 96, 2-cyclopropyl-4(1H)-quinolone]: in the assay with left atrial muscle, the EC20 came out at 123 µM and the EC50 turned out to be 374 µM.

On to `COc1cc2[nH]cc(C(=O)N3CCC(c4ccccc4)CC3)c(=O)c2cc1OC` [Compound 105, 6,7-dimethoxy-3-(4-phenylpiperidinyl)carbonyl-4(1H)-quinolone], for which, in the assay on left atrial muscle, the EC20 was less than 100 µM and the EC50 worked out at 221 µM.

On to `COc1ccc(C)c2c(=O)c(C(=O)N3CCC(c4ccccc4)CC3)c[nH]c12` [Compound 106, 8-methoxy-5-methyl-3-(4-phenylpiperidinyl)carbonyl-4(1H)-quinolone], for which, in the assay on left atrial muscle, the EC20 was determined as 102 µM, the EC50 amounted to 245 µM and the EC100 stood at 447 µM.

As to `CCn1cc(C(=O)N2CCN(c3ccccc3OC)CC2)c(=O)c2cc(C)ccc21` [Compound 108, 1-ethyl-3-{1-[4-(2-methoxyphenyl)piperazinyl]carbonyl}-6-methyl-4(1H)-quinolone], in the assay on left atrial muscle, the EC20 is 44.2 µM and the EC50 turned out to be 126 µM.

With `CCn1cc(C(=O)N2CCN(c3ccc([N+](=O)[O-])cc3)CC2)c(=O)c2cc(OC)c(OC)cc21` [Compound 110, 6,7-dimethoxy-1-ethyl-3-{1-[4-(4-nitrophenyl)piperazinyl]carbonyl}-4(1H)-quinolone], in the assay on left atrial muscle, the EC20 is 105 µM and the EC50 was found to be 178 µM.

Regarding `CCCCOc1cc2[nH]c(C3CC3)cc(=O)c2cc1OC` [Compound 115, 7-n-butoxy-2-cyclopropyl-6-methoxy-4(1H)-quinolone], in the assay on left atrial muscle, the EC20 turned out to be 15.3 µM, the EC50 was 81.3 µM and the EC100 is 202 µM.

As for `CCOc1cc2c(=O)cc(C3CC3)[nH]c2cc1OC` [Compound 119, 2-cyclopropyl-6-ethoxy-7-methoxy-4(1H)-quinolone], in the assay on left atrial muscle, the EC20 worked out at 37.6 µM and the EC50 was determined as 84.1 µM.
